Experiments:
Format in all cases: in vivo
Myzus persicae = experiment: Example B8: Activity against Myzus persicae; conditions: 400 ppm spray on infected pea seedlings, 20°, evaluated after 3 and 6 days, read-out: percentage reduction in population (% activity)
Description: (§1) Pea seedlings are infected with Myzus persicae, subsequently sprayed with a spray mixture comprising 400 ppm of active ingredient and then incubated at 20°. The test is evaluated after 3 and 6 days. The percentage reduction in population (% activity) is determined by comparing the number of dead aphids on the treated and untreated plants.

Aphis craccivora = experiment: Example B2: Activity against Aphis craccivora; conditions: 400 ppm spray on infected pea seedlings, 20° C., evaluated after 3 and 6 days, read-out: percentage reduction in population (% activity)
Description: as §1, with “Aphis craccivora,” for “Myzus persicae,”, “20° C.” for “20°.”

Anthonomus grandis = experiment: Example B1: Activity against Anthonomus grandis; conditions: 72 h, 400 ppm spray on young cotton plants, 10 adult beetles, evaluated after 3 days, read-out: percentage reduction in population and percentage reduction in feeding damage (% activity)
Description: Young cotton plants are sprayed with an aqueous emulsion spray mixture comprising 400 ppm of active ingredient. After the spray coating has dried on, the plants are populated with 10 adult Anthonomus grandis and placed into a plastic container. 3 days later, the test is evaluated. The percentage reduction in population and the percentage reduction in feeding damage (% activity) are determined by comparing the number of dead beetles and the feeding damage between the treated and the untreated plants.

Nilaparvata lugens = experiment: Example B12: Activity against Nilaparvata lugens; conditions: 504 h, 400 ppm spray on rice plants, larvae in the 2nd and 3rd stages, evaluated after 21 days, read-out: percentage reduction in population (% activity)
Description: (§2) Rice plants are sprayed with an aqueous emulsion spray mixture comprising 400 ppm of active ingredient. After the spray coating has dried on, the plants are populated with plant hopper larvae in the 2nd and 3rd stages. The test is evaluated after 21 days. The percentage reduction in population (% activity) is determined by comparing the number of surviving plant hoppers on the treated and untreated plants.

Diabrotica balteata = experiment: Example B5: Activity against Diabrotica balteata; conditions: 144 h, 400 ppm spray on maize seedlings, 10 larvae in the second stage, evaluated after 6 days, read-out: percentage reduction in population (% activity)
Description: Maize seedlings are sprayed with an aqueous emulsion spray mixture comprising 400 ppm of active ingredient. After the spray coating has dried on, the seedlings are populated with 10 Diabrotica balteata larvae in the second stage and transferred to a plastic container. The test is evaluated after 6 days. The percentage reduction in population (% activity) is determined by comparing the number of dead larvae between the treated and untreated plants.

Heliothis virescens = experiment: Example B6: Activity against Heliothis virescens; conditions: 144 h, 400 ppm spray on young soyabean plants, 10 caterpillars in the first stage, evaluated after 6 days, read-out: percentage reduction in population and in feeding damage (% activity)
Description: Young soyabean plants are sprayed with an aqueous emulsion spray mixture comprising 400 ppm of active ingredient. After the spray coating has dried on, the plants are populated with 10 Heliothis virescens caterpillars in the first stage and transferred to a plastic container. The test is evaluated after 6 days. The percentage reduction in population and in feeding damage (% activity) are determined by comparing the number of dead caterpillars and the feeding damage between the treated and untreated plants.

Nephotettix cincticeps = experiment: Example B10: Activity against Nephotettix cincticeps; conditions: 504 h, 400 ppm spray on rice plants, larvae in the 2nd and 3rd stages, evaluated after 21 days, read-out: percentage reduction in population (% activity)
Description: as §2, with “with” for “with plant hopper”, “surviving leaf” for “surviving plant”, “and untreated,” for “and untreated”

Ctenocephalides felis = experiment: Example B4: Activity against Ctenocephalides felis (systemic); conditions: 5 ppm in blood at 37°, fed through membrane, 20 adult fleas, evaluated after 24 and 48 hours, read-out: percentage reduction in population (% activity)
Description: Twenty adult fleas of the species Ctenocephalides felis are placed into a flat, round cage, both sides of which are covered with gauze. A container whose bottom is sealed with a Parafilm membrane is placed onto the cage. In the container there is blood which comprises 5 ppm of active ingredient and which is constantly heated at 37°. The fleas take up blood through the membrane. The test is evaluated 24 and 48 hours after setting up the experiment The percentage reduction in population (% activity) is determined by comparing the number of dead fleas when using treated and untreated blood. 24 hours after the treatment, the blood is replaced by fresh blood which has also been treated.

CN1COCN(Cc2ccc(Cl)nc2)/C1=N/[N+](=O)[O-] [Compound No. 1.2, 5-(2-Chloropyrid-5-ylmethyl)-3-methyl-4-nitroiminoperhydro-1,3,5-oxadiazine]
> 80%: inhibition at 400 ppm (Myzus persicae) | inhibition at 400 ppm (Aphis craccivora) | inhibition at 400 ppm (Anthonomus grandis) | inhibition at 400 ppm (Nilaparvata lugens) | inhibition at 400 ppm (Diabrotica balteata) | inhibition at 400 ppm (Heliothis virescens) | inhibition at 400 ppm (Nephotettix cincticeps) | inhibition at 5 ppm (Ctenocephalides felis)
